According to publication PMC3889317 (Diabetes Therapy, 2013):

Assay: Plasma pharmacokinetics
Conditions: during 5 days of dosing

N#C[C@@H]1C[C@@H]2C[C@@H]2N1C(=O)[C@@H](N)C12CC3CC(O)(CC(O)(C3)C1)C2 [5-OH-Saxagliptin, 5-hydroxy-saxagliptin]
Plasma concentrations appeared to reach steady state by: Day 5
